Tests used:
PBMCs = type: cell-based, human; details: human, 6 days
Description: For the standard PBMC assay, PHA-P stimulated cells from at least two normal donors were pooled, diluted in fresh medium to a final concentration of 1×10^6 cells/mL, and plated in the interior wells of a 96 well round bottom microplate at 50 μL/well (5×10^4 cells/well). Test drug dilutions were prepared at a 2× concentration in microfuge tubes and 100 μL of each concentration was placed in appropriate wells in a standard format. A predetermined dilution of virus stock was placed in each test well (50 μL, final MOI≅0.1). Wells with cells and virus alone were used for virus control. Separate plates were prepared identically without virus for drug cytotoxicity studies using an XTT assay system. […]
Tetrazolium dye staining of screening plates: After 6 days of incubation (37° C. with 5% CO2), the test plates were analyzed by staining with the tetrazolium dye XTT (2,3-b (2-methoxy-4-nitro-5-sulfophenyl)-2H-tetrazolium-5-carboxanilide). XTT-tetrazolium is metabolized by mitochondrial enzymes of metabolically active cells to a soluble formazan product, allowing the rapid quantitative analysis of the inhibition of HIV-induced cell killing by anti-HIV compounds. […] Plates were sealed with adhesive plate sealers and inverted several times to mix the soluble formazan product and the plate was read spectrophotometrically at 450 nm with a Molecular Devices Vmax plate reader. […]

HIV-1RF = assay: CEM-SS cell-based assay, inhibition of HIV-induced cell killing (XTT); details: 3.2 μM to 1 mM
Description: Cell Preparation: Prior to infection, CEM-SS cells were grown in complete tissue culture medium (RPMI 1640 medium with 10% heat-inactivated fetal bovine serum, 2 mM L-glutamine, 100 U/mL penicillin, 100 μg/mL streptomycin, 10 μg/mL gentamycin) and transferred to T-150 flasks. On the day preceding the assay, the cells were split 1:2 to assure the cells would be in an exponential growth phase at time of infection. On the day of assay, the cells were washed twice with tissue culture medium and resuspended in fresh tissue culture medium. […]
Virus Preparation: Pre-tittered aliquots of HIV-1ROJO and HIV-1RF were removed from the freezer (−80° C.) and thawed to room temperature in a biological safety cabinet. The virus was resuspended and diluted into tissue culture medium such that the amount of virus added to each well in a volume of 50 μL will be the amount determined to give complete cell killing at 6 days post-infection.
Tetrazolium dye staining of screening plates: After 6 days of incubation (37° C. with 5% CO2), the test plates were analyzed by staining with the tetrazolium dye XTT (2,3-b (2-methoxy-4-nitro-5-sulfophenyl)-2H-tetrazolium-5-carboxanilide). XTT-tetrazolium is metabolized by mitochondrial enzymes of metabolically active cells to a soluble formazan product, allowing the rapid quantitative analysis of the inhibition of HIV-induced cell killing by anti-HIV compounds. […]

HIV-1IIIB = assay: as above; details: 3.2 μM to 1 mM
HIV-1 MN = assay: P-24 assay, syncytia and CPE in infected PBMCs; type: cell-based
Description: PBMCs were isolated as described above and incubated with HIV-1 MN (NIH AIDS reagent program, catalog #137) at 37° C. for 3 hours in 15 mL tubes. Test groups included uninfected PBMCs, infected PBMCs with no N-glycolylneuraminic acid, and infected PBMCs plus N-glycolylneuraminic acid. […] Excess virus was removed by washing the cells with PBS one time then the cells were exposed to N-glycolylneuraminic acid. P24 output was measured using the DuPont P24 assay kit (optical density (OD) in Table 15). Syncytia formation was examined as well as cytopathic effects (CPE). […] Sample #7 (p24 123×10^6 pg HIV-1P24/ml) was excluded from the mean P24 output calculation due to a sampling error.

Molt-4 = assay: Cell proliferation in treated cell lines; type: cell-based, human; details: treated cell line; 0 to 200 μM or 1000 μM
DU-145 = assay: Cell proliferation in treated cell lines; type: cell-based, human; details: treated cell line; 0 to 200 μM or 1000 μM
HSF = assay: Cell proliferation in treated cell lines; type: cell-based, Human; details: treated cell line; 0 to 200 μM or 1000 μM
HT1080 = assay: Cell proliferation in treated cell lines; type: cell-based, human; details: treated cell line; 0 to 200 μM or 1000 μM
HepG2 = assay: Cell proliferation in treated cell lines; type: cell-based, human; details: treated cell line; 0 to 200 μM or 1000 μM
X4 strain LAI/IIIB = assay: RT activity in infected PBMCs treated with carbohydrates; type: cell-based, HIV; details: summary of Table 17
Description: Reverse Transcriptase Activity Assay: A microtiter based reverse transcriptase (RT) reaction was utilized as described by Buckheit et al., (1991), AIDS Research and Human Retroviruses, 7: 295-302. Tritiated thymidine triphosphate (3H-TTP) was suspended in distilled H2O at 5 Ci/mL. Poly rA and oligo dT were prepared as a stock solution which was kept at −20° C. RT reaction buffer was prepared fresh on a daily basis and contained 125 μL 1M EGTA, 125 μL dH2O, 110 μL 10% SDS, 50 μL 1M Tris (pH 7.4), 50 μL 1M DTT, and 40 μL 1M MgCl2. These three solutions were mixed together in a ratio of 2 parts 3H-TTP, 1 part poly rA:oligo dT, and 1 part reaction buffer. Ten microliters of this reaction mixture were placed in a round bottom microtiter plate and 15 μL of virus containing supernatant were added and mixed. The plate was incubated at 37° C. in a water bath with a solid support to prevent submersion of the plate and incubated for 60 minutes. […] Opti-Fluor-O (Packard) was added to each sample and incorporated radioactivity was quantified utilizing a Wallac 1450 MicroBeta Plus liquid scintillation counter. […]
No carbohydrates were added to the control sample. RT activity was determined at 3, 6, 9, 13, 17, and 20 days post-infection (PI) with X4 strain LAI/IIIB.

TNFα = TNFα production in latently infected promonocytic U1 cells, ELISA; type: cell-based; details: read-out: Inhibition of TNFα Production % of Control
Description: TNFα production was determined by an enzyme linked immunosorbent assay (ELISA) in a competitive format, using a commercially available anti-TNFα antibody. Inhibition of TNFα production is reported as percent of saline control in Table 18 and was dose dependent.

gp120 = target: T1, gp120 (Human immunodeficiency virus type 1 group M subtype B, UniProt P05877); assay: Inhibition of gp120 binding, HIVMN to CEM-SS cells; parameters: species or system HIV
T1 construct: host or cells: HIV MN virus added to CEM-SS cells

O=C(CO)N[C@H]1[C@H]([C@H](O)[C@H](O)CO)OC(O)(C(=O)O)C[C@@H]1O (some centres unmarked) [N-glycolylneuraminic acid]
TC50 (PBMCs): > 1000 µM | anti-HIV activity (HIV-1RF): did not display anti-HIV activity | anti-HIV activity (HIV-1IIIB): did not display anti-HIV activity | CPE (HIV-1 MN; dilution 1:2): negative | Syncytia (HIV-1 MN; dilution 1:2): negative | CPE (HIV-1 MN; dilution 1:4): negative | Syncytia (HIV-1 MN; dilution 1:4): negative | CPE (HIV-1 MN; dilution 1:8): negative | Syncytia (HIV-1 MN; dilution 1:8): negative | CPE (HIV-1 MN; dilution 1:16): negative | Syncytia (HIV-1 MN; dilution 1:16): negative | CPE (HIV-1 MN; dilution 1:32): negative | Syncytia (HIV-1 MN; dilution 1:32): negative | CPE (HIV-1 MN; dilution 1:64): negative | Syncytia (HIV-1 MN; dilution 1:64): negative | % Confluency (day 5) (Molt-4): 50% | % Confluency (day 5) (DU-145): 100% | % Confluency (day 5) (HSF): 100% | % Confluency (day 5) (HT1080): 100% | % Confluency (day 5) (HepG2): 50% | RT activity in treated cells (in words) (X4 strain LAI/IIIB): RT activity was decreased | inhibition at 0.1 µM (TNFα; 0.1 μM): 0% | inhibition at 0.3 µM (TNFα; 0.3 μM): 0% | inhibition at 10 µM (TNFα; 10 μM): 9.8% | inhibition at 30 µM (TNFα; 30 μM): 22.6% | inhibition at 100 µM (TNFα; 100 μM): 96% | Inhibition of gp120 Binding (% of control) (gp120; 20 μm/ml): 9.8% | Inhibition of gp120 Binding (% of control) (gp120; 80 μm/ml): 57.6% | Inhibition of gp120 Binding (% of control) (gp120; 200 μm/ml): 86.8%

Reference: US20050159390A1, “Treatment and prevention of HIV and other viral infections” (priority 1998, published 2005)
